Test results from BigSolDB 2.1.

O=C(Nc1ccc(F)cc1F)c1cccnc1Oc1cccc(C(F)(F)F)c1
solubility (mole fraction)
Conditions	278.15 K	283.15 K	288.15 K	293.15 K	298.15 K	303.15 K	308.15 K	313.15 K	318.15 K	323.15 K
in ethanol	0.000246	0.000325	0.000425	0.00055	0.000703	0.000894	0.00113	0.00142	0.00177	0.0022
in ethyl acetate	0.0105	0.0125	0.015	0.0176	0.0206	0.024	0.0281	0.0322	0.0371	0.0429
in isopropanol	4.4e-05	7.09e-05	0.000114	0.000186	0.000292	0.000456	0.00069	0.00104	0.00158	0.00232
in methanol	0.000223	0.0003	0.000385	0.000489	0.000633	0.000799	0.000999	0.00125	0.00155	0.00193
in water	1.52e-07	2e-07	2.53e-07	3.15e-07	3.93e-07	4.84e-07	5.94e-07	7.19e-07	8.81e-07	1.07e-06
